From EP3611183B1, “EPITOPE PEPTIDE SPECIFICALLY RECOGNIZING AUTOANTIBODY AGAINST AQUAPORIN 5, AND USE THEREOF” (Seoul National University R & DB Foundation, priority 2017, dated 2023)

System: anti-AQP5 autoantibodies
Test: Indirect immunofluorescence (IIF) assay: AQP5 staining by human serum/IgG pre-incubated with peptide
Format: binding
Conditions: for inhibition of anti-AQP5 autoantibodies from the control group: by comparison of the mean signal intensities (Fig. 2B); for frequency of recognition by SS vs control samples: seven peptides originating from the AQP5 sequence
Source text: This study was done in compliance with the Helsinki Declaration after approvals from the Institutional Review Board of Seoul National University Hospital (IRB number: 0912-011-302) and the Institutional Review Board of Seoul St. Mary's Hospital (IRB number: KC13ONMI0646). From our previous study (12), 13 control and 24 SS serum samples positive for anti-AQP5 IgG were chosen based on the levels of anti-AQP5 IgG and availability. The first 12 control and 12 SS samples had similar low levels of anti-AQP5 IgG, while the rest of the samples had intermediate to high levels. IgG antibodies were purified using a protein A column (ThermoFisher Scientific, Waltham, MA, USA) from the sera of 3 SS patients who were not included in the previous study. A commercial human IgG product purified from pooled normal sera (Sigma-Aldrich Korea, Seoul, Korea) was used as control. All SS patients fulfilled the 2002 American-European Consensus group classification criteria and/or the 2012 American College of Rheumatology criteria. Madin-Darby canine kidney (MDCK) cells expressing full-length human AQP5 (MDCK-AQP5) were maintained in DMEM medium with 10% FBS and 1% penicillin/streptomycin in the presence of G418 (12). A mixture of non-transfected MDCK and MDCK-AQP5 cells (6 × 10^4) was plated onto collagen-coated coverslips of 12 mm diameter. After stimulation with 0.5 mM cAMP for 24 hours, the cells were fixed with 4% paraformaldehyde in PBS (pH 7.4) and subjected to antigen retrieval by incubation in sodium citrate buffer (10 mM sodium citrate, 0.05% Tween-20, pH 6) at 105 °C for 20 min. After blocking with 5% BSA in PBS, the cells were incubated with goat polyclonal antibodies raised against a peptide near the C-terminus of human AQP5 (Santa Cruz, Paso Robles, CA, USA) along with control/SS sera (1:200 dilution) or purified IgG (10 µg) that were pre-incubated overnight with 10 µg synthetic peptides in RIA buffer (10 mM Tris-HCl, 350 mM NaCl, 1% BSA, 1% Triton X-100, 0.5 % Sodium deoxycholate, 0.1% SDS, 10% Horse serum, pH 7.6). Subsequently, the cells were stained with Alexa Fluor 488-conjugated donkey anti-goat IgG (Invitrogen, Carlsbad, CA, USA) and CF™ 594-conjugated rabbit anti-human IgG (Sigma-Aldrich). At least four images of AQP5-expressing cells were randomly selected, based on the goat anti-AQP5 antibody stain, and imaged sequentially for the staining with human IgG using a confocal microscope (Carl Zeiss, Jena, Germany). After coding the images, two individuals blindly determined the relative intensities of the anti-AQP5 human IgG signals by decreasing the brightness of the red signal until all the signals of AQP5 stain disappeared. […] The mean of the Δ brightness was used to express the anti-AQP5 IgG level in each sample. The differences in proportion between two groups were determined by Fisher's exact test. Differences in means between the experimental and control groups were determined by Student's t-test, while the differences among peptides were determined by Oneway ANOVA. All statistical analyses were performed using SPSS (SPSS Inc., Chicago, USA). To analyze the epitopes recognized by anti-AQP5 autoantibodies, MDCK-AQP5 cells were double stained with goat anti-AQP5 antibodies and serum from either control subjects or SS patients that were pre-incubated with each peptide (Fig. 2A). The intensity of AQP5 staining by human IgG in the presence of each peptide was expressed as the percentage of control conditions in the absence of peptides (Table 2). Because the normalized intensities of AQP5 staining in the presence of IRP varied from 69 to 173 depending on the sample, signal intensities smaller than 62.2, which is the mean - 2SD of values in the presence of IRP, were regarded as being inhibited by the corresponding peptide.

Sequence: CMNPARSFGC (Epitope of AQP5 Extracellular loop E with Cystein added at N- and C- term) [E2, Extracellular loop E aa 184-191 with added terminal cysteines]
- inhibition of anti-AQP5 autoantibodies from the control group: significantly inhibited
- frequency of recognition by SS vs control samples: more frequently recognized by SS than by control samples

Sequence: GCSMNPARSFGC (Epitope of AQP5 Extracellular loop E with Cystein added at C- term) [peptide E1, Extracellular loop E aa 181-191 with C-terminal cysteine added]
- control samples inhibited by / recognizing the peptide (14 control samples (13 sera, 1 control-IgG), inhibited = signal intensity smaller than 62.2): 2 of 14
- SS samples inhibited by / recognizing the peptide (27 SS samples (24 sera, 3 purified IgG), inhibited = signal intensity smaller than 62.2): 20 of 27
- inhibition of anti-AQP5 autoantibodies from the control group: significantly inhibited
- frequency of recognition by SS vs control samples: most frequently recognized
